Assay results published in article PMC7582316, “Structural and Computational Insights into a Blebbistatin-Bound Myosin•ADP Complex with Characteristics of an ADP-Release Conformation along the Two-Step Myosin Power Stoke” (International Journal of Molecular Sciences, 2020).

Target: T1, Dd myosin-II motor domain (Dictyostelium discoideum, UniProt P08799)
T1 construct: gene mhcA; His6-tagged motor domain, amino acids 1–765 fused to a C-terminal SSB tag
Test: microscale thermophoresis (MST); also X-ray crystal structure with blebbistatin
Format: binding

T1 sequence (P08799 1-765): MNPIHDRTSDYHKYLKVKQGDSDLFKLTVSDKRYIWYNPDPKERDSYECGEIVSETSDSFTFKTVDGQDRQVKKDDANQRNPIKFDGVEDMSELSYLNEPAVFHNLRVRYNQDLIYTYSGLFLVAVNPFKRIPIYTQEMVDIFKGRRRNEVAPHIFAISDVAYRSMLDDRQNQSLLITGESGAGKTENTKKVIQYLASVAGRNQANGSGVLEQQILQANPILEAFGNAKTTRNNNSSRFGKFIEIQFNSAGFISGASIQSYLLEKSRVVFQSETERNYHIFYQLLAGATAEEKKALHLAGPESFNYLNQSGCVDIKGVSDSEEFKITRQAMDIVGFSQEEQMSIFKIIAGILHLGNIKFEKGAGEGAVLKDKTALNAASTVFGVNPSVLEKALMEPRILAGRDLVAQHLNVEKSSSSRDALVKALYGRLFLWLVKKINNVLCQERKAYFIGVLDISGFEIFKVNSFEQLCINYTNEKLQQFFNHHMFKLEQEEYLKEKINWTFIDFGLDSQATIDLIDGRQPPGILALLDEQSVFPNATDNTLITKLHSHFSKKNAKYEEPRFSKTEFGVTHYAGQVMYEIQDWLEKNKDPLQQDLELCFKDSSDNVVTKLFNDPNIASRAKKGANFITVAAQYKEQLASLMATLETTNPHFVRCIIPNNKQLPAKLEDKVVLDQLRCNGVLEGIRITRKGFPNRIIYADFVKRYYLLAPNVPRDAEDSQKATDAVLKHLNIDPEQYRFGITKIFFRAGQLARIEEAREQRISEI

Structure (SMILES): Nc1ncnc2c1ncn2[C@@H]1O[C@H](COP(=O)(O)OP(=O)(O)O)[C@@H](O)[C@H]1O [ADP]
- Kd: 37.5 ± 7.3 µM
